Here are results for 30 molecules from patent US20050090529A1, “3,5 Disubstituted indazole compounds with nitrogen-bearing 5-membered heterocycles, pharmaceutical compositions, and methods for mediating or inhibiting cell proliferation” (PFIZER INC, priority 2003, published 2005).

The test system of the experiment is Cyclin-dependent kinase. As to the kind of experiment: Cyclin-dependent kinase inhibition, % inhibition at 10 nM (library Examples 99-270). Particulars: 10 nM compound. The experiment is classed as biochemical. Here is the method:
Cyclin-dependent kinase activity was measured by quantifying the enzyme-catalyzed, time-dependent incorporation of radioactive phosphate from [^32P]ATP or [^33P]ATP into a protein substrate. Unless noted otherwise, assays were performed in 96-well plates in a total volume of 50 μL, in the presence of 10 mM HEPES (N-[2-hydroxyethyl]piperazine-N′-[2-ethanesulfonic acid]) (pH 7.4), 10 mM MgCl2, 25 μM adenosine triphosphate (ATP), 1 mg/mL ovalbumin, 5 μg/mL leupeptin, 1 mM dithiothreitol, 10 mM beta-glycerophosphate, 0.1 mM sodium vanadate, 1 mM sodium fluoride, 2.5 mM ethylene glycol-bis(β-aminoethyl ethKer)-N,N,N′N′-tetraacetic acid (EGTA), 2% (v/v) dimethylsulfoxide, and 0.03-0.4 μCi [^32/33P]ATP per reaction. Reactions were initiated with enzyme, incubated at 30° C., and terminated after 20 minutes by the addition of ethylenediaminetetraacetic acid (EDTA) to 250 mM. The phosphorylated substrate was then captured on a nitrocellulose or phosphocellulose membrane using a 96-well filtration manifold, and unincorporated radioactivity was removed by repeated washing with 0.85% phosphoric acid. Radioactivity was quantified by exposing the dried membranes to a phosphorimager.
Results of assays performed on compounds, which include the specific examples described above are provided in Examples 99-274 above, and in Table 1 below. Unless indicated otherwise in a particular entry, the units and assays used are as indicated in the applicable column of the table.
In the case of `CCNCc1cncc(-c2ccc3[nH]nc(-c4ncc(C(=O)N(CC)CC)[nH]4)c3c2)c1C` [Example 132, N,N-diethyl-2-(5-{5-[(ethylamino)methyl]-4-methylpyridin-3-yl}-1H-indazol-3-yl)-1H-imidazxole-5-carboxamide], the “% Inhib @ 10 nM” value is recorded as 80%.

With `CCNCc1cncc(-c2ccc3[nH]nc(-c4ncc(C(=O)N5CCN(c6c(C)cccc6C)CC5)[nH]4)c3c2)c1C` [Example 133], the “% Inhib @ 10 nM” value is 67%. With `CCNCc1cncc(-c2ccc3[nH]nc(-c4ncc(C(=O)NC5CCC5)[nH]4)c3c2)c1C` [Example 135, N-cyclobutyl-2-(5-{5-[(ethylamino)methyl]-4-methylpyridin-3-yl}-1H-indazol-3-yl)-1H-imidazole-5-carboxamide], the “% Inhib @ 10 nM” value came out at 67%. Consider `CCNCc1cncc(-c2ccc3[nH]nc(-c4ncc(C(=O)NCC(F)(F)F)[nH]4)c3c2)c1C` [Example 136, 2-(5-{5-[(ethylamino)methyl]-4-methylpyridin-3-yl}-1H-indazol-3-yl)-N-(2,2,2-trifluoroethyl)-1H-imidazole-5-carboxamide], for which the “% Inhib @ 10 nM” value is reported as 72%.

Regarding `CCNCc1cncc(-c2ccc3[nH]nc(-c4ncc(C(=O)N(C)C5CCN(C)C5)[nH]4)c3c2)c1C` (stereo not drawn) [Example 137, 2-(5-{5-[(ethylamino)methyl]-4-methylpyridin-3-yl}-1H-indazol-3-yl)-N-methyl-N-(1-methylpyrrolidin-3-yl)-1H-imidazole-5-carboxamide], the “% Inhib @ 10 nM” value is 37%. `CCNCc1cncc(-c2ccc3[nH]nc(-c4ncc(C(=O)N5CCCC5)[nH]4)c3c2)c1C` [Example 138, ethyl[(4-methyl-5-{3-[5-(pyrrolidin-1-ylcarbonyl)-1H-imidazol-2-yl]-1H-indazol-5-yl}pyridin-3-yl)methyl]amine]: the “% Inhib @ 10 nM” value is given as 79%. Then `CCNCc1cncc(-c2ccc3[nH]nc(-c4ncc(C(=O)NC5(CO)CCCC5)[nH]4)c3c2)c1C` [Example 139, 2-(5-{5-[(ethylamino)methyl]-4-methylpyridin-3-yl}-1H-indazol-3-yl)-N-[1-(hydroxymethyl)cyclopentyl]-1H-imidazole-5-carboxamide], with 64%; and `CCNCc1cncc(-c2ccc3[nH]nc(-c4ncc(C(=O)N[C@H](CO)Cc5c[nH]c6ccccc56)[nH]4)c3c2)c1C` [Example 140, 2-(5-{5-[(ethylamino)methyl]-4-methylpyridin-3-yl}-1H-indazol-3-yl)-N-[(1S)-2-hydroxy-1-(1H-indol-3-ylmethyl)ethyl]-1 H-imidazole-5-carboxamide], with 31%. Take `CCNCc1cncc(-c2ccc3[nH]nc(-c4ncc(C(=O)N5CCC(O)(Cc6ccccc6)CC5)[nH]4)c3c2)c1C` [Example 141, 4-benzyl-1-{[2-(5-{5-[(ethylamino)methyl]-4-methylpyridin-3-yl}-1H-indazol-3-yl)-1H-imidazol-5-yl]carbonyl}pipendin-4-ol]: the “% Inhib @ 10 nM” value came out at 71%. Consider `CCNCc1cncc(-c2ccc3[nH]nc(-c4ncc(C(=O)N5CCC(C(=O)c6ccc(F)cc6)CC5)[nH]4)c3c2)c1C` [Example 142, (1-{[2-(5-{5-[(ethylamino)methyl]-4-methylpyridin-3-yl}-1H-indazol-3-yl)-1H-imidazol-5-yl]carbonyl}piperidin-4-yl)(4-fluorophenyl)methanone], for which the “% Inhib @ 10 nM” value is 65%. As for `CCNCc1cncc(-c2ccc3[nH]nc(-c4ncc(C(=O)NC5CCCCC5)[nH]4)c3c2)c1C` [Example 143, N-cyclohexyl-2-(5-{5-[(ethylamino)methyl]-4-methylpyridin-3-yl}-1H-indazol-3-yl)-1H-imidazole-5-carboxamide], the “% Inhib @ 10 nM” value came to 78%. Consider `CCNCc1cncc(-c2ccc3[nH]nc(-c4ncc(C(=O)N5CCN(c6ccncc6)CC5)[nH]4)c3c2)c1C` [Example 144, ethyl{[4-methyl-5-(3-{5-[(4-pyridin-4-ylpiperazin-1-yl)carbonyl]-1H-imidazol-2-yl}-1H-indazol-5-yl)pyridin-3-yl]methyl}amine], for which the “% Inhib @ 10 nM” value was 30%. Then `CCNCc1cncc(-c2ccc3[nH]nc(-c4ncc(C(=O)N5CCN(c6cnccn6)CC5)[nH]4)c3c2)c1C` [Example 145], with 58%.

As for `C=CCN(CC=C)CCN1CCN(C(=O)c2cnc(-c3n[nH]c4ccc(-c5cncc(CNCC)c5C)cc34)[nH]2)CC1` [Example 146, diallyl[2-(4-{[2-(5-{5-[(ethylamino)methyl]-4.-methylpyridin-3-yl}-1H-indazol-3-yl)-1H-imidazol-5-yl]carbonyl}piperazin-1-yl)ethyl]amine], the “% Inhib @ 10 nM” value is 22%. With `CCNCc1cncc(-c2ccc3[nH]nc(-c4ncc(C(=O)N5CCN(c6ccccc6C#N)CC5)[nH]4)c3c2)c1C` [Example 147] the figure was 69%; with `CCNCc1cncc(-c2ccc3[nH]nc(-c4ncc(C(=O)NCc5ccc(F)c(C(F)(F)F)c5)[nH]4)c3c2)c1C` [Example 148], 60%.

As for `CCNCc1cncc(-c2ccc3[nH]nc(-c4ncc(C(=O)N5CCC6CCCCC6C5)[nH]4)c3c2)c1C` (stereo not drawn) [Example 149, ethyl[(4-methyl-5-{3-[5-(octahydroisoquinolin-2(1H)-ylcarbonyl)-1H-imidazol-2-yl]-1H-indazol-5-yl}pyridin-3-yl)methyl]amine], the “% Inhib @ 10 nM” value was 69%. Consider `CCNCc1cncc(-c2ccc3[nH]nc(-c4ncc(C(=O)NC)[nH]4)c3c2)c1C` [Example 151, 2-(5-{5-[(ethylamino)methyl]-4-methylpyridin-3-yl}-1H-indazol-3-yl)-N-methyl-1H-imidazole-5-carboxamide], for which the “% Inhib @ 10 nM” value amounted to 67%. As for `CCNCc1cncc(-c2ccc3[nH]nc(-c4ncc(C(=O)N5CCOCC5)[nH]4)c3c2)c1C` [Example 152, ethyl[(4-methyl-5-{3-[5-(morpholin-4-ylcarbonyl)-1H-imidazol-2-yl]-1H-indazol-5-yl}pyridin-3-yl)methyl]amine], the “% Inhib @ 10 nM” value is 67%. Then `CCNCc1cncc(-c2ccc3[nH]nc(-c4ncc(C(=O)NCCO)[nH]4)c3c2)c1C` [Example 153, 2-(5-{5-[(ethylamino)methyl]-4-methylpyridin-3-yl}-1H-indazol-3-yl)-N-(2-hydroxyethyl)-1H-imidazole-5-carboxamide], with 70%; and `CCNCc1cncc(-c2ccc3[nH]nc(-c4ncc(C(=O)NCCC#N)[nH]4)c3c2)c1C` [Example 154, N-(2-cyanoethyl)-2-(5-{5-[(ethylamino)methyl]-4-methylpyridin-3-yl}-1H-indazxol-3-yl)-1H-imidazole-5-carboxamide], with 71%; and `CCNCc1cncc(-c2ccc3[nH]nc(-c4ncc(C(=O)NCCSCc5ccc(CN(C)C)o5)[nH]4)c3c2)c1C` [Example 155, N-{2-[({5-[(dimethylamino)methyl]-2-furyl}methyl)thio]ethyl}-2-(5-{5-[(ethylamino)methyl]-4-methylpyridin-3-yl}-1H-indazol-3-yl)-1H-imidazoie-5-carboxamide], with 37%. For `CCNCc1cncc(-c2ccc3[nH]nc(-c4ncc(C(=O)N(C)CCN(C)C)[nH]4)c3c2)c1C` [Example 156], the “% Inhib @ 10 nM” value amounted to 25%. As to `CCNCc1cncc(-c2ccc3[nH]nc(-c4ncc(C(=O)NC/C=C(\C)CCC=C(C)C)[nH]4)c3c2)c1C` [Example 157], the “% Inhib @ 10 nM” value turned out to be 28%. For `CCNCc1cncc(-c2ccc3[nH]nc(-c4ncc(C(=O)NC5Cc6ccccc6C5)[nH]4)c3c2)c1C` [Example 158, N-(2,3-dihydro-1H-inden-2-yl)-2-(5-{5-[(ethylamino)methyl]-4-methylpyridin-3-yl}-1H-indazol-3-yl)-1H-imidazole-5-carboxamide], the “% Inhib @ 10 nM” value is given as 56%. Take `CCNCc1cncc(-c2ccc3[nH]nc(-c4ncc(C(=O)NCc5ccc(CN(C)C)cc5)[nH]4)c3c2)c1C` [Example 159, N-{4[(dimethylamino)methyl]benzyl}-2-(5-{5-[(ethylamino)methyl]-4-methylpyridin-3-yl}-1H-indazol-3-yl)-1H-imidazole-5-carboxamide]: the “% Inhib @ 10 nM” value is 28%. As for `CCNCc1cncc(-c2ccc3[nH]nc(-c4ncc(C(=O)NC(Cc5cc(C)no5)C5CC5)[nH]4)c3c2)c1C` (stereo not drawn) [Example 160, N-[1-cyclopropyl-2-(3-methylisoxazol-5-yl)ethyl]-2-(5-{5-[(ethylamino)methyl]-4-methylpyridin-3-yl}-1H-indazol-3-yl)-1H-imidazole-5-carboxamide], the “% Inhib @ 10 nM” value is listed as 48%.

As to `CCNCc1cncc(-c2ccc3[nH]nc(-c4ncc(C(=O)NCCc5c[nH]cn5)[nH]4)c3c2)c1C` [Example 161, 2-(5-{5-[(ethylamino)methyl]-4-methylpyridin-3yl-1H-indazol-3yl)-N-2-(1H-imidazol-4-yl)ethyl]-1H-imidazole-5-carboxamide], the “% Inhib @ 10 nM” value is on record as 48%. With `CCNCc1cncc(-c2ccc3[nH]nc(-c4ncc(C(=O)N[C@H]5CCc6ccccc65)[nH]4)c3c2)c1C` [Example 162] the figure was 81%; with `CCNCc1cncc(-c2ccc3[nH]nc(-c4ncc(C(=O)N5CCSCC5)[nH]4)c3c2)c1C` [Example 163, ethyl[(4-methyl-5-{3-[5-(thiomorpholin-4-ylcarbonyl)-1H-imidazol-2-yl]-1H-indazol-5-yl}pyridin-3-yl)methyl]amine], 60%.
